# From patent US20170183318A1, “AMIDE COMPOUNDS, METHODS FOR PREPARATION, AND USE THEREOF AS AGENTS FOR THE TREATMENT AND PREVENTION OF DISEASES CAUSED BY RNA- AND/OR DNA-CONTAINING VIRUSES, AND CONCOMITANT DISEASES” (OBSCHESTVO S OGRANICHENNOI OTVETSTVENNOSTIYU …, priority 2014, published 2017)
# Like-named read-outs stand apart in the source and are kept apart here.
# Columns and labels:
# [1] = tested on: HCoV (antigenically similar to prototype strain OC-43); test: Murine model of coronavirus infection (mortality); type: in vivo; details: Mus musculus, po, 336 h; HCoV intranasally, C57BL/6 mice; 30 mg/kg orally once daily for 5 days from 24 h after infection; 14 days; 20 mice per group; virus control 60.0
# Description: In the study, author's strain HCoV was used, identified as group 2 virus antigenically similar to prototype strain OC-43. The efficiency of the compounds was studied in C57BL/6 mice by comparing mortality rates in the treated and control mice for 14 days after infection. Each experimental group comprised 20 mice. The animals were infected intranasally in a volume of 0.03 ml/mouse under brief ether anesthesia.
# The studied compounds were administered to the animals orally at a dose of 30 mg/kg of body weight. The animals of the control group were administered physiological solution. Preparations were administered once daily for 5 days. The treatment of animals was started 24 hours after infection.
# [2] = tested on: Coxsackie A2 virus (strain HCXV A2); test: Antiviral activity against Coxsackie virus in vivo (mortality and life expectancy of infected mice); details: for inhibition in vivo at 30 mg/kg / mortality at 30 mg/kg: Mus musculus, po; for inhibition in vivo at 30 mg/kg: 168 h, read-out: Protective index (%); for mortality at 30 mg/kg: 360 h, read-out: Total mortality, %; for Average life expectancy (days), Compared with control: difference vs virus control; for Average life expectancy (days), Relative: mice infected with 10LD50 HCXV A2
# In short: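 White mice (6–7 g), 14–15 per group, infected i.m. with 10LD50 of HCXV A2; compounds 30 mg/kg orally once daily for 7 days from 24 h post-infection, saline placebo. Mortality and weight recorded daily over 15 days versus untreated infected group.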
# [3] = tested on: Staphylococcus aureus; test: Murine model of staphylococcal pneumonia (bacterial growth from lung imprints); type: in vivo, outbred mice; details: 5 days before and 2 days after S. aureus infection, lung imprints on Columbia agar, control 82.5
# Description: The efficiency of the compounds was evaluated in outbred mice (females) infected with Staphylococcus aureus (mouse-adapted strain). The administration of the compounds was started 5 days before infection, orally at doses of 15 and 30 mg/kg in a volume of 0.2 mL. On day 5, the mice were infected intranasally under brief ether anesthesia by administration of Staphylococcus aureus at a dose of 10^9 CFU in a volume of 0.05 mL. One hour after infection, the administration of the compounds to the mice was continued at the above-indicated doses for additional 2 days. The reference drug was ampicillin administered intravenously at a single dose of 20 mg/kg. The control was mice infected with Staphylococcus aureus intranasally and treated with PBS. The mice were sacrificed two days after, the breast was dissected, and lung imprints were made in Petri dishes with Columbia agar. After incubation for 24 hours at 30° C., the presence (or absence) of Staphylococcus aureus bacterial growth was fixed in comparison with the control. The intensity of bacterial growth was evaluated in scores and expressed in %.
# [4] = tested on: human virus hRSV; test: Antiviral activity against mouse-adapted RS virus (body weight; viral titer in lungs titrated in Hep-2 cells); type: in vivo, mice; details: compounds 30 mg/kg, Ribavirin 40 mg/kg, orally once daily for 5 days, n = 6
# Description: Antiviral effectiveness of the chemical compounds against RSV in an experimental murine model in vivo was determined for human virus hRSV that was previously adapted to the growth in mouse lungs. The animals were infected with the virus at a dose of 0.5 log TCID50 intranasally under brief ether anesthesia in a volume of 0.05 ml/mouse. The studied compounds were administered orally once daily for 5 days according to the treatment regimen at a dose of 30 mg/kg. The first administration was made 24 hours after infection. Normal saline solution was administered to mice as placebo. Intact animals served as a negative control and were hold in a separate room under the same conditions as the experimental animals. Each experimental group comprised 12 animals.
# The antiviral activity of the studied compounds was determined by the efficiency in the prevention of weight loss and by suppression of the reproduction of hRSV in the mouse lungs by measuring a viral titer in the experimental groups relative to the control on days 5 and 7 after infection.
# In addition, the therapeutic action of the compounds of general formula I was determined by their ability to suppress the reproduction of hRSV in the mouse lungs on days 5 and 7 after infection. The viral titer was determined by the titration of a 10% lung suspension in Hep-2 cell culture. The result was registered 2 days after the incubation at 37° C. by TCID.
# [5] = 30 mg/kg orally once daily for 7 days, vs virus control
# [6] = 30 mg/kg orally once daily for 7 days
Structure (SMILES),mortality at 30 mg/kg [1] [%],"inhibition in vivo at 30 mg/kg [2, 5] [%]",mortality at 30 mg/kg [2] [%],"Average life expectancy (days), Compared with control [2, 6]","Average life expectancy (days), Relative [2, 6] [days]","Bacterial growth, in % ([3]; 15 mg/kg orally)","Bacterial growth, in % ([3]; 30 mg/kg orally)",Body weight of the mice on day 5 after infection with hRSV (M ± SD) ([4]; day 5),Body weight of the mice on day 7 after infection with hRSV (M ± SD) ([4]; day 7),inhibition in vivo at 30 mg/kg [2] [%]
O=C(O)CCCC(=O)NCCC1CCCN1 (stereo not shown) [Compound 2],30,55.6,28.6,+20.1 days,32.3,50 (sporadic colonies (up to 100)),55%,–,–,–
O=C(O)CCCC(=O)NCCC1CCCCN1 (stereo not shown) [Compound 6],35,–,–,–,–,45%,55%,16.47 ± 0.26,17.02 ± 0.29,–
O=C(O)CCCC(=O)NCCCc1cccs1 [Compound 34],45,22.2,50,+8.3 days,20.5,25 (sporadic colonies (up to 10)),50 (sporadic colonies (up to 100)),–,–,–
CC(Cc1cnc[nH]1)NC(=O)CCCC(=O)O (stereo not shown) [Compound 115],30,–,–,–,–,55%,25 (sporadic colonies (up to 10)),–,–,–
O=C(O)CCCC(=O)NCCCc1c[nH]cn1 [Compound 118],40,–,–,–,–,55%,50 (sporadic colonies (up to 100)),–,–,–
CC(C)N(CCc1cnc[nH]1)C(=O)CCCC(=O)O [Compound 141],35,–,–,–,–,55%,40%,–,–,–
Cc1csc(CCNC(=O)CCCC(=O)O)n1 [Compound 197],45,–,42.9,+11.2 days,22.2,45%,60%,–,–,33.3
O=C(O)CCCC(=O)NC(Cc1c[nH]cn1)C(=O)O (stereo not shown) [Compound 251],30,–,42.9,+10.0 days,22.2,55%,20%,–,–,33.3
O=C(O)CCCC(=O)NCCc1nc2ccccc2s1 [Compound 275],40,40,42.9,+9.5 days,22.4,35%,40%,–,–,–
